Data from PMC11091117, “A fluorescently-tagged tick kinin neuropeptide triggers peristalsis and labels tick midgut muscles” (Scientific Reports, 2024).

What was measured:
[1] = tested on: vector-only (V/O) CHO-K1 cells; experiment: Cellular end-point fluorescence calcium mobilization assay, vector-only control cells; type: cell-based; settings: 10 µM peptide, Fluo-8, 29 °C, 60 s, 4 technical replicates
Text: Three peptides were used in this study. These included: 1) the ligand for the endogenous tick kinin receptor from Rhipicephalus sanguineus, Rhisa-kinin 8 peptide of sequence GTGEDQAFSPWGamide (Rhisa-K-8; RK8; of identical sequence to Rhimi-K-8 in Rhipicephalus microplus)[48], 2) the same peptide but fluorescently labeled at the N-terminus with tetramethylrhodamine (TMR) a red fluorescent dye, designated TMR-Rhisa-K-8 (TMR-RK8), and 3) a labeled peptide synthesized with the scrambled sequence of the kinin ligand, designated TMR-Scrambled. The sequence of TMR-RK8 was TMR-C-GTGEDQAFSPWGamide). The TMR-Scrambled kinin (TMR-C-GTQWGPGFEADSamide) served as a negative control for tissue labeling. […]
A fluorescence-based intracellular calcium mobilization end-point assay described by Xiong, et al.[50] was used to confirm the activity of the TMR-labeled RK8 peptide on a cell line expressing the tick kinin receptor. […] The calcium fluorescence signal was detected by a CLARIOstar (BMG LABTECH, Chicago, IL, United States) plate reader set to read at the fluorescence plate-mode with excitation and emission wavelengths of 490 and 525 nm at 29 °C. Calcium responses were read immediately after the addition of 10 µL of either TMR-RK8, unlabeled RK8, or blank solvent (1% DMSO in HBSS). […]

[2] = tested on: tick kinin receptor (CHO-K1 BMLK3 cells); experiment: Fluorescence microscopy validation of labeled peptide specificity on live BMLK3 cells; type: binding, Rhipicephalus microplus
Description: BMLK3 and vector-only cells were cultured in selective media (F-12K medium containing 10% fetal bovine serum and 800 µg/mL-1 of G418 sulfate), cells were seeded in […] (CELLSTAR®, Greiner Bio-One®, Monroe, NC USA) at 20,000 cells per well and were incubated overnight. The next assay, the cell culture medium was removed, and cells were rinsed twice with 200 µl DPBS, and 180 µl of HBSS buffer was added into each well. The peptide stock solutions were prepared in 1% DMSO in HBSS at 100 µM. TMR-RK8 (20 µl) was added into each well and incubated with the cells for 5 min at room temperature. The medium was then removed with a pipette and the cells were rinsed twice with 200 µl HBSS, and DAPI (VECTASHIELD® H-1200, Vector Laboratories) was added (20 µl of 0.15 µg/ml) for visualizing the cell nuclei. Cells were rinsed twice with 200 µl of HBSS, and finally 180 µl HBSS per well was added.
The cells were immediately imaged under a Zeiss Axio Observer® inverted fluorescence microscope. The exposure time for the Bodipy-Tetramethylrhodamine-X (BPTmX) fluorescence channel was the same for BMLK3 cells and V/O cells. DAPI imaging was done subsequently using the same focal height as the BPTmx channel.

Substance: TMR-C-GTGEDQAFSPWGamide [TMR-RK8]
- calcium fluorescence response of vector-only cells (in words) [1]: invariable background fluorescence
- labeling of BMLK3 cells, Fig. S1 (in words) ([2]; 1 µM TMR-RK8, 5 min at room temperature, HBSS, Zeiss Axio Observer, BPTmX channel): only observed in the BLMK3 cells
- receptor visualization across multiple BMLK3 cells (in words) ([2]; Figs. S1 and S2, BMLK3 cells): consistently visualized with TMR-RK8 across multiple BMLK3 cells
